Experimental data from patent publication US20160324875A1, “CUTANEOUS COMPOSITION COMPRISING VITAMIN D ANALOGUE AND A MIXTURE OF SOLVENT AND SURFACTANTS” (LEO PHARMA A/S, priority 2009, published 2016).
“Also recorded” adds a separate entry of the source.

Key:
[1] = skin diffusion experiment (Franz diffusion cells); type: in vitro ADME, pig; settings: from a composition of the invention, 4 mg/cm^2, 21 hours, FIG. 3, % of applied dose
Experimental: To investigate the skin penetration and permeation of calcipotriol from compositions of the invention, a skin diffusion experiment was conducted. Full thickness skin from pig ears was used in the study. The ears were kept frozen at -18° C. before use. On the day prior to the experiment the ears were placed in a refrigerator (5±3° C.) for slow defrosting. On the day of the experiment, the hairs were removed using a veterinary hair trimmer. The skin was cleaned for subcutaneous fat using a scalpel and two pieces of skin were cut from each ear and mounted on Franz diffusion cells in a balanced order.
Static Franz-type diffusion cells with an available diffusion area of 3.14 cm^2 and receptor volumes ranging from 8.6 to 11.1 ml were used in substantially the manner described by T. J. Franz, “The finite dose technique as a valid in vitro model for the study of percutaneous absorption in man”, in Current Problems in Dermatology, 1978, J. W. H. Mall (Ed.), Karger, Basel, pp. 58-68. The specific volume was measured and registered for each cell. A magnetic bar was placed in the receptor compartment of each cell. […]
The in vitro skin permeation of each test composition was tested in 6 replicates (i.e. n=6). […] A glass spatula was used for the application, and the residual amount of the composition was determined so as to give the amount of the composition actually applied on the skin. […]

[2] = system: gene encoding cathelicidin; test: induction of the gene encoding cathelicidin in reconstructed human epidermis (qPCR); type: cell-based; settings: glycerol 5% vs 10% or 15% by weight in calcipotriol composition
Text: In psoriasis, the level of cathelicidin is increased in lesional skin of psoriasis patients. […] This finding has been utilized to develop an assay in which the uptake and biological activity of calcipotriol in human keratinocytes from the tested compositions has been determined by measuring the level of induction of the gene encoding cathelicidin.
In the assay, composition 1A prepared as described in Example 1 above was applied topically in triplicate on reconstructed human epidermis consisting of normal human keratinocytes cultured for 12 days on 0.5 cm^2 polycarbonate filters (available from SkinEthic® Laboratories, Nice, France) in an amount of […]. The tissue was treated for two days followed by separation of the epidermis from the polycarbonate filter and snap-frozen in liquid nitrogen. RNA was extracted from the cells and cDNA synthesized by conventional procedures. Quantitative real-time PCR (qPCR) was then performed using the following assays from Applied Biosystems: CAMP Hs0018038_ml and GAPDH Hs99999905_ml. The expression levels of cathelicidin were normalized to GAPDH and a relative quantification was made by comparison with Daivonex® ointment.

IL-la = test: release of IL-1a from calcipotriol ointment containing glycerol; settings: 5%, 10%, 15% by weight of glycerol in a calcipotriol ointment
[3] = one study, Hannuksela et al. 1975; cited from earlier work

Q: Which results are given for `C=C1/C(=C\C=C2/CCC[C@]3(C)[C@@H]([C@H](C)/C=C/[C@@H](O)C4CC4)CC[C@@H]23)C[C@@H](O)C[C@@H]1O` [calcipotriol, Calcipotriol]?
A: calcipotriol penetrated into viable layers of the skin (dermis and epidermis) [1]: a significant amount; calcipotriol permeated through the skin into the receptor fluid [1]: Very little; also recorded: only a minor amount

Q: What does the source list for `OCC(O)CO` [glycerol]?
A: expression of cathelicidin [2]: increased with a low amount of glycerol; release of IL-la (IL-la): reduce the release of IL-la in a dose-dependent manner

Q: Which “number of irritant reactions” value [3] does the source give for `CC(O)CO` (centres unmarked) [propylene glycol] here?
A: 12.5%
